Laboratory results as given in US20230089949A1, “SMALL MOLECULES FOR TREATING AGE-RELATED RETINAL DISEASES” (University of Pittsburgh - Of the Commonwealth System of …, priority 2020, published 2023).

Tests used:
Aged Fischer 344 rats = experiment: Histological analysis of retinal outer nuclear layer (ONL) in aged Fischer 344 rats (Example 1); format: in vivo, rat
Procedure: Aged Fischer 344 rats were treated with oral 8-AG (5 mg/kg/day for 6 weeks; drug delivered via the drinking water), or were a control, and the eyes of the rats were harvested for histological analysis of the retinal outer nuclear layer (ONL) and the results were compared with a corresponding histological analysis of young Fischer 344 rats (FIG. 8). With advance age, there is likely to be a loss of photoreceptors with associated thinning and eventual loss of the overlying ONL (see Schuman et al., Ophthalmology, 116:488-96.e2, 2009)
The orientation of each eye was randomly embedded and sectioned. The fixed eyes were placed in a histology processing cassette for serial alcohol based dehydration. Dehydrated eyes were embedded in paraffin, and retinal cross sections were cut at 6 μm thickness. Retinal cross sections near the optic nerve were stained by hematoxylin and eosin (H&E). Images of H&E-stained retinal cross sections were collected under 4× and 20× objectives. […]
In each retinal cross section image under the 20× objective, the outer nuclear layer (ONL) thickness was measured at 6 locations along the image to calculate the average ONL thickness. […]

Rho^P23H/+ knock-in mice = experiment: Retinal morphology and scotopic ERG in Rho P23H/+ knock-in mice of retinitis pigmentosa; format: in vivo, mouse; conditions: 11 mg per kg bw per day i.p. for five weeks from PND 15
Procedure: (§1) For treatment, female F344 rats were orally administered with 5 mg per kg body weight (bw) of 8-aminoguanine (8-AG) per day in the drinking water starting at 22-24 months of age for 8 weeks. Non-treated age-matched F344 rats and young adult F344 rats at 3-4 months of age were used as controls. RhoP^23H/+ mice were administered with 8-AG for 11 mg per kg bw per day by intraperitoneal injections starting from postnatal day (PND) 15 for five weeks. PBS treated Rho^P23H/+ and WT mice were used as controls.
(§2) Electroretinogram (ERG): ERG was performed using the Celeris system (Diagnosys, Lowell, Mass., USA). Rats were placed in the dark overnight. During the ERG test, protect the rats from the light from the beginning to the finish of the scotopic test, only use the dim light to do the preparation in the dark room. Pupils were dilated with 1% tropicamide (Akorn, Lake Forest, Ill., USA) and 2.5% phenylephrine (Sigma). Rats were anesthetized with an intraperitoneal injection of ketamine at 80 mg/kg bw and xylazine at 7 mg/kg bw. Eyes were lubricated by a 0.3% hypromellose eye gel (Alcon, Fort Worth, Tex., USA). A heating pad was used to maintain body temperature at 37° C. Scotopic ERG responses of dark-adapted eyes to ten flashes from 0.0001 cd·s/m^2 to 100 cd·s/m^2 were recorded and averaged from three sweeps per flash intensity with inter-sweep intervals of 10 to 30 s. After exposed to 10 cd/m^2 illumination for 10 min, the photopic ERG responses were recorded from the light-adapted eyes in response to flashes from 0.01 cd·s/m^2 to 100 cd·s/m^2 in addition to a 10 cd/m^2 background light. P-values were calculated by a two-way ANOVA to determine the statistical significance between the response amplitudes in the 8-AG treated group and untreated group. Factor 1, treatment condition; and factor 2, flash intensity.
Retinal histology and H&E staining: To examine the structure of the aging rats' retinas treated with 8-AG, the rats were euthanized, their eyes removed, and fixed in 4% paraformaldehyde and 1% glutaraldehyde before paraffin sectioning. […]

aged F344 rat retinae [1] = experiment: Immunofluorescence of GFAP and CD68 in aged F344 rat retinae; format: in vivo; conditions: 5 mg/kg bw per day in drinking water for eight weeks from 22 months of age
Procedure: Glial cells are activated upon photoreceptor degeneration, and retinal immune response is thought to contribute to photoreceptor degeneration as the disease progresses. Activated macrophages were reported to not only scavenge dead cells, but also can phagocytose living photoreceptors (McMenamin et al. Prog. Retin. Eye Res. 70, 85-98, doi:10.1016/j.preteyeres. 2018.12.002 (2019)).
as §1
Eyes were enucleated by a surgical scissor cutting around the eyeball. Each eye was opened with a cut at the cornea side of the limbus, cut horizontally at the edge of the cornea for a circle, corneas removed and lens isolated. Eyecups were incubated in freshly prepared 4% paraformaldehyde for 2 hr. Fixed eyecups were dehydrated sequentially in 5, 10, 20 and 40% sucrose solutions in phosphate buffered saline (PBS) for 30 min each at room temperature. […]

aged F344 rat retinae [2] = experiment: Immunoblots of protein markers of mitochondria function, oxidative stress and apoptosis in aged F344 rat retinae; format: in vivo
Procedure: A range of protein markers of mitochondria function and apoptosis was probed in the retinae of young, aged and 8-AG treated aged F344 rat retinae, as well as the mitochondrial superoxide dismutase 2 (SOD2), an enzyme protecting tissue from damage by ROS, using immunoblots. […] The fact that chronic 8-AG […] retinal levels of SOD2 is consistent with reduced retinal oxidative stress in 8-AG-treated aged rats.
as §1
Western Immunoblotting: The freshly isolated retinae were homogenized using Lysing Matrix D in a FASTPREP-24™ instrument (MP Biomedicals) in HBSS buffer (5 mM KCl, 0.3 mM KH2PO4, 138 mM NaCl, 4 mM NaHCO3, 0.3 mM Na2HPO4, 5.6 mM glucose, and 10 mM HEPES, pH 7.4) containing complete protease inhibitor cocktail (1 tablet/10 ml, Roche) and phosphatase inhibitor cocktail (MilliporeSigma, 1:100). After centrifugation (16200 g, 15 minutes at 4° C.), the membrane protein fraction was prepared by suspending the membrane pellets in lysis buffer containing 0.3M NaCl, 50 mM Tris-HCl (pH 7.6), and 0.5% Triton X-100, as well as the same concentration of protease inhibitors as above. The suspensions were incubated on ice and centrifuged (16200 g, 15 minutes at 4° C.). The protein concentrations of the combined supernatants were determined using the Pierce BCA protein assay (Thermo Fisher Scientific). Two μg of unheated total protein was loaded on a 4%-15% TGX Stain-Free SDS-PAGE gel (Bio-Rad). As a reliable loading control, total protein measurement per sample was determined using Bio-Rad Stain Free SDS-PAGE gel technology. UV-activated protein fluorescence was imaged on a ChemiDoc MP (Bio-Rad). The gel was electrotransferred to polyvinylidene fluoride membrane and immunoblotted with 1D4 anti-rhodopsin antibody (5 μg/mL). After washing in TBS-T, the membranes were incubated with secondary antibody, sheep anti-mouse HRP (Southern Biotech), developed using WESTERNBRIGHT® Quantum (Advansta), and imaged on a ChemiDoc MP (BioRad). The volume (intensity) of each protein species was determined and normalized to total protein using Image Lab software (Bio-Rad).

aged F344 rat retinae [3] = experiment: Retinal morphology (H&E, rhodopsin immunofluorescence) in F344 rat model of age-related photoreceptor degeneration (Example 2); format: in vivo
Procedure: To test the efficacy of 8-AG in photoreceptor degeneration, 8-AG was administered in two animal models including the F344 rat of age-related photoreceptor degeneration, and the Rho^P23H/+ knock-in mice of retinitis pigmentosa and examine the retinal morphology and function.
as §1
Eyes were enucleated by a surgical scissor cutting around the eyeball. Each eye was opened with a cut at the cornea side of the limbus, cut horizontally at the edge of the cornea for a circle, corneas removed and lens isolated. Eyecups were incubated in freshly prepared 4% paraformaldehyde for 2 hr. Fixed eyecups were dehydrated sequentially in 5, 10, 20 and 40% sucrose solutions in phosphate buffered saline (PBS) for 30 min each at room temperature. Finally, eyecups were incubated in a mixture of 40% sucrose in PBS and O.C.T. compound (FisherScientific, Houston, Tex. USA) at 3:7 volume ratio overnight at 4° C. before they are embedded in the same mixed solution in an orientation-specific manner and frozen in liquid nitrogen-bathed isobutene. A microtome made twelve-micron retinal cross-sections at −18° C. and those containing the optic nerve head were applied onto a SUPERFROST™ glass slide (FisherScientific, Houston, Tex. USA). These slides were then used for IHC.
After rehydration and permeabilization in PBST for 15 min, retinal sections were incubated in 5% goat serum for 30 min, and then they were incubated with 5% goat serum containing the primary antibodies. […]

animals = experiment: Observed toxicity in the animal experiments that were performed; format: in vivo
Text: (§3) While the genetic loss of PNPase activity is toxic and results in a compromised immune system, partial inhibition of PNPase by pharmacological administration is safe. The chronic effects of 8-AG have been examined in Dahl salt-sensitive rats, which is a model of genetic hypertension that is exacerbated by providing a high salt diet. […] Next, organs from these animals were examined histologically by an independent veterinary pathology lab.

aged F344 rat retinae [4] = experiment: SD-OCT of ONL thickness in aged F344 rats, 0 vs 4 wks; format: in vivo
Procedure: (§4) The potent efficacy of 8-AG in preserving retinal morphology and function of the aged F344 rats and Rho^P23H/+ mice were shown in FIGS. 11A-11D and […].
Optical coherence tomography (OCT): To assess the 8-AG treatment on old F344 rats, ultrahigh-resolution SD-OCT (Bioptigen, Morrisville, N.C.) was performed for in vivo imaging of rats retinas. Pupils were dilated with 1% tropicamide (Akorn, Lake Forest, Ill., USA) and 2.5% phenylephrine (Sigma). Rats were anesthetized with an intraperitoneal injection of ketamine at 80 mg/kg bw and xylazine at 7 mg/kg bw. Eyes were lubricated by a 0.3% hypromellose eye gel (Alcon, Fort Worth, Tex., USA). A heating pad was used to maintain body temperature; the A scan/B scan ratio was set at 1200 lines. Five frames of OCT images scanned at 0° were acquired in the B-mode, averaged, and saved as pdf files. To measure changes to photoreceptors in the retinas assess the effect of 8-AG on retinal protection, the thickness of the ONL was measured along with the scanned SD-OCT image at 6 points from the temporal to nasal end of the retina. A graph of ONL thicknesses was plotted to obtain the means and standard error (SE) of the samples.

Dahl salt-sensitive rats [5] = experiment: Chronic effects of 8-AG in Dahl salt-sensitive rats on high salt diet (MRI, organ histology); format: in vivo, rat; conditions: high salt diet with 8AG for 40 days; independent veterinary pathology lab
Text: as §3

aged F344 rat retinae [6] = experiment: Electroretinogram (ERG) of aged F344 rats, 0 vs 4 wks; format: in vivo; conditions: 5 mg/kg bw per day in drinking water; 4 wks vs 0 wk
Procedure: as §4, §2

Dahl salt-sensitive rats [7] = conditions: high salt diet with 8AG for 40 days; vs untreated high-salt control; cited from earlier work
[8] = 5 mg per kg bw per day in drinking water for 8 weeks from 22 months of age, central, equatorial and peripheral sites, vs untreated age-matched group
[9] = 5 mg/kg bw per day in drinking water from 24 months, 4 wks compared to before treatment

For `Nc1nc2[nH]c(N)nc2c(=O)[nH]1` [8-AG, 8-aminoguanine], the “ONL preservation in retinal edges” value (Aged Fischer 344 rats; oral 8-AG 5 mg/kg/day for 6 weeks via drinking water, edge of old retinae, retinal edges with preserved ONL) was 7 out of 8, the “ONL thickness, effect of treatment (2-way ANOVA)” value (Aged Fischer 344 rats; oral 8-AG 5 mg/kg/day for 6 weeks, treated vs untreated old rats, independent of retinal location) was “significant” and the ONL layer thickness (Rho^P23H/+ knock-in mice; H&E) was “thicker”. The “scotopic ERG a-wave response” value (Rho^P23H/+ knock-in mice; vs vehicle control group) was “significantly higher”, the “scotopic ERG b-wave response” value (Rho^P23H/+ knock-in mice; vs vehicle control group) was “significantly higher” and the GFAP staining (aged F344 rat retinae [1]) was “did not affect”. For the same molecule, the “number of CD68+ cells” value (aged F344 rat retinae [1]) was “significantly reduced”, the “retinal levels of SOD2” value (aged F344 rat retinae [2]; chronic oral 8-AG 5 mg/kg for 8 wks, immunoblot, aged rats) was “decreased” and the “Rhodopsin levels (immunoblot)” value (aged F344 rat retinae [2]; oral 8-AG 5 mg/kg for 8 wks, aged F344 retina) was “restored”. The “retinal MFN2 levels” value (aged F344 rat retinae [2]; oral 8-AG 5 mg/kg for 8 wks, immunoblot) was “further increased”, the “cleaved CASP3” value (aged F344 rat retinae [2]; oral 8-AG 5 mg/kg for 8 wks, immunoblot, aged retinae) was “reduced” and the ONL thickness (aged F344 rat retinae [3]; [8]) was “distinctively increased”. The OS/IS thickness (aged F344 rat retinae [3]; [8]) was “distinctively increased”, the “Rhodopsin levels (immunofluorescence)” value (aged F344 rat retinae [3]; 5 mg per kg bw per day in drinking water for 8 weeks, vs untreated aged retinae) was “increased” and the toxicity (animals) was “no observed toxicity”. The “ONL thickness, nasal side (SD-OCT)” value (aged F344 rat retinae [4]; [9]) was “slight increase”, the “ONL thickness, temporal side (SD-OCT)” value (aged F344 rat retinae [4]; [9]) was “no change” and the “ONL at sites where it had disappeared before treatment (SD-OCT)” value (aged F344 rat retinae [4]; single exemplary retina, 4 wks of treatment) was “reappeared”. The “microscopic alterations in heart, kidney, liver, aorta, adrenal gland (histology)” value (Dahl salt-sensitive rats [5]) was “No treatment-related microscopic alterations”, the “photopic b wave responses” value (aged F344 rat retinae [6]) was “did not affect” and the scotopic a-wave (aged F344 rat retinae [6]) was “significantly increased”. The scotopic b-wave (aged F344 rat retinae [6]) was “significantly increased” and the “strokes in the cerebral cortex and subcortical areas (MRI)” value (Dahl salt-sensitive rats [7]) was “protected from strokes”.
